We go through five compounds from ChEMBL document CHEMBL3351638, “Discovery of 6-[5-(4-fluorophenyl)-3-methyl-pyrazol-4-yl]-benzoxazin-3-one derivatives as novel selective nonsteroidal mineralocorticoid receptor antagonists” (Bioorg Med Chem, 2014).

Bounds are passed on as bounds.

Data set [1] concerns Rattus norvegicus. In words: Toxicity in DOCA-salt hypertensive Wistar rat model assessed as change in heart rate at 100 mg/kg, po qd for 18 days measured 24 hrs post 7th and 14th last dose by tail-cuff method. Also on record: dose 100 mg/kg, route oral. To be noted: in vivo. Type of data set: organism-based.
The test system of data set [2] is Rattus norvegicus. Description: Toxicity in DOCA-salt hypertensive Wistar rat model assessed as change in seminal vesicle weight at 100 mg/kg, po qd for 18 days measured 24 hrs post 7th and 14th last dose […]. Type of data set: organism-based. The arrangement: dose 100 mg/kg, route oral. To be noted: in vivo.
Data set [3] addresses T1, Progesterone receptor (Homo sapiens, UniProt P06401).
T1 sequence (P06401 whole entry): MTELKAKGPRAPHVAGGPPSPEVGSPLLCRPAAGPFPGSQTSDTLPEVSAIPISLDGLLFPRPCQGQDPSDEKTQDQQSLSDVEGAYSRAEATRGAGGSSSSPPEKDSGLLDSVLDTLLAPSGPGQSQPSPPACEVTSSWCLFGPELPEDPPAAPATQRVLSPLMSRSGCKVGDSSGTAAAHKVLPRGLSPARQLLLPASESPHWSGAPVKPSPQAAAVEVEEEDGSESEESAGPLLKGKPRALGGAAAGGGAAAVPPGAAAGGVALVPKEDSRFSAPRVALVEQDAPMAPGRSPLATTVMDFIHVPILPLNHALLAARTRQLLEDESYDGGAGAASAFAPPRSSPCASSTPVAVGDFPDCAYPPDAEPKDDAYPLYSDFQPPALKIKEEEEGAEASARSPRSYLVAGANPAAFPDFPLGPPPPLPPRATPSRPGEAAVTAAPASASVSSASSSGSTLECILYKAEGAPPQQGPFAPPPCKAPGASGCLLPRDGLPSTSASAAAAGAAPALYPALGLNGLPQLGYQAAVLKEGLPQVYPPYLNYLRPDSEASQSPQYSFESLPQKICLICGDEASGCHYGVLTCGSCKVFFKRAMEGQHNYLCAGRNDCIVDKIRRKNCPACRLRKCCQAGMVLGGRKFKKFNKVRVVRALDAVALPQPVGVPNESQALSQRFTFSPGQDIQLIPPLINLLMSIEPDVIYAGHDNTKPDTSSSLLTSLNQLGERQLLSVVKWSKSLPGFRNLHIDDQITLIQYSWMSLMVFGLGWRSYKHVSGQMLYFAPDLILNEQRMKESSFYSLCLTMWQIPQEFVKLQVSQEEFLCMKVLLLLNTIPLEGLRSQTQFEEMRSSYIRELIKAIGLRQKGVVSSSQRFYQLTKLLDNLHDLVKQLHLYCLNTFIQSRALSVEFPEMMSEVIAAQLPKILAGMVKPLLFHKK
Description: Displacement of [[3H]-Progesterone from progesterone receptor (unknown origin) expressed in 293 cells after 16 hrs by scintillation counting. Type of data set: cell-based.

Data set [4] in a line: Metabolic stability in rat hepatic microsomes at 1 umol/L pre-incubated fro 5 mins at 37 degC before addition of NADPH-generating system by UV detection based HPLC method. Format: ADME. To be noted: liver microsomes, read-out: CLH. (Liver microsomes are a subcellular fraction often used to study metabolism.)
The target of data set [5] is T2, Mineralocorticoid receptor (Homo sapiens, UniProt P08235).
T2 sequence (P08235 whole entry): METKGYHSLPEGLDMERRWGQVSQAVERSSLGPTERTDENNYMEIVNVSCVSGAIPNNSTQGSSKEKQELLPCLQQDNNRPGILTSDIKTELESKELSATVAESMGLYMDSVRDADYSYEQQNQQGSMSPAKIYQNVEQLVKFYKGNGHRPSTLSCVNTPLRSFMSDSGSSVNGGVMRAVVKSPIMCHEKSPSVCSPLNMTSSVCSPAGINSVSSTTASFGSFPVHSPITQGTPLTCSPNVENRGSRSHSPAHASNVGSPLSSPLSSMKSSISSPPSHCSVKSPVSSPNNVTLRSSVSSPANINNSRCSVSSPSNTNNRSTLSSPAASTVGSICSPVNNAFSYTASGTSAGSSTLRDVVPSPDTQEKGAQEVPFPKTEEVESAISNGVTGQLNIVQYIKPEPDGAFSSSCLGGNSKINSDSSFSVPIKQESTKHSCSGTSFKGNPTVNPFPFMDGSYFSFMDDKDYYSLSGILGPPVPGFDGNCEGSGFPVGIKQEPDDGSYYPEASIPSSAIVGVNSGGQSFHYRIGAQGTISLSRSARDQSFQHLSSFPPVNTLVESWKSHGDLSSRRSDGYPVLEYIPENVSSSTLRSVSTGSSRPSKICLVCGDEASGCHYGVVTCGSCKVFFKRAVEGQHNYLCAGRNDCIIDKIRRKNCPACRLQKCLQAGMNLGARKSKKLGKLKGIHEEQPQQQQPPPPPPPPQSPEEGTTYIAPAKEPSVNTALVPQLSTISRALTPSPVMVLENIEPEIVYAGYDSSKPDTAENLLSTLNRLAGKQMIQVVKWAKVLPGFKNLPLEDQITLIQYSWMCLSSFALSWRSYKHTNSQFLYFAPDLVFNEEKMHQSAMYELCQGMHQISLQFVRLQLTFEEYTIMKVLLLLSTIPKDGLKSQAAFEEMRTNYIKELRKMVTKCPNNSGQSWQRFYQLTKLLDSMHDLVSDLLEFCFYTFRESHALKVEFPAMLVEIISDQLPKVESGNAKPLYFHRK
Description: Antagonist activity at human mineralocorticoid receptor expressed in COS1 cells after 1 day by luciferase reporter gene assay

A short description of data set [6]: Mean residence time in Sprague-Dawley rat at 3 mg/kg, po. To be noted: in vivo. Also on record: dose 3 mg/kg, route oral. Type of data set: ADME, organism-based.
A short description of data set [7]: AUC (0 to 24 hrs) in Sprague-Dawley rat at 3 mg/kg, po. The arrangement: time < 24 hr, dose 3 mg/kg, route oral. Format: ADME, organism-based. To be noted: plasma.
Data set [8] is described as follows: Clearance in Sprague-Dawley rat at 1 mg/kg, iv. Type of data set: ADME, organism-based. To be noted: in vivo. The arrangement: dose 1 mg/kg, route intravenous.
Data set [9] deals with T2, Mineralocorticoid receptor. In words: biochemical.
Description: Displacement of [3H]aldosterone from human mineralocorticoid receptor expressed in 293 cells after 16 hrs by scintillation counting
Data set [10] in a line: Volume of distribution at steady state in Sprague-Dawley rat at 1 mg/kg, iv. Type of data set: ADME, organism-based. The arrangement: dose 1 mg/kg, route intravenous. To be noted: in vivo, read-out: Vdss.
For data set [11], the target named is Glucocorticoid receptor (Homo sapiens, UniProt P04150). In words: biochemical.
Description: Displacement of [3H]-Dexamethasone from glucocorticoid receptor (unknown origin) expressed in 293 cells after 16 hrs by scintillation counting
Data set [12] addresses T3, Androgen receptor (Homo sapiens, UniProt P10275).
T3 sequence (P10275 whole entry): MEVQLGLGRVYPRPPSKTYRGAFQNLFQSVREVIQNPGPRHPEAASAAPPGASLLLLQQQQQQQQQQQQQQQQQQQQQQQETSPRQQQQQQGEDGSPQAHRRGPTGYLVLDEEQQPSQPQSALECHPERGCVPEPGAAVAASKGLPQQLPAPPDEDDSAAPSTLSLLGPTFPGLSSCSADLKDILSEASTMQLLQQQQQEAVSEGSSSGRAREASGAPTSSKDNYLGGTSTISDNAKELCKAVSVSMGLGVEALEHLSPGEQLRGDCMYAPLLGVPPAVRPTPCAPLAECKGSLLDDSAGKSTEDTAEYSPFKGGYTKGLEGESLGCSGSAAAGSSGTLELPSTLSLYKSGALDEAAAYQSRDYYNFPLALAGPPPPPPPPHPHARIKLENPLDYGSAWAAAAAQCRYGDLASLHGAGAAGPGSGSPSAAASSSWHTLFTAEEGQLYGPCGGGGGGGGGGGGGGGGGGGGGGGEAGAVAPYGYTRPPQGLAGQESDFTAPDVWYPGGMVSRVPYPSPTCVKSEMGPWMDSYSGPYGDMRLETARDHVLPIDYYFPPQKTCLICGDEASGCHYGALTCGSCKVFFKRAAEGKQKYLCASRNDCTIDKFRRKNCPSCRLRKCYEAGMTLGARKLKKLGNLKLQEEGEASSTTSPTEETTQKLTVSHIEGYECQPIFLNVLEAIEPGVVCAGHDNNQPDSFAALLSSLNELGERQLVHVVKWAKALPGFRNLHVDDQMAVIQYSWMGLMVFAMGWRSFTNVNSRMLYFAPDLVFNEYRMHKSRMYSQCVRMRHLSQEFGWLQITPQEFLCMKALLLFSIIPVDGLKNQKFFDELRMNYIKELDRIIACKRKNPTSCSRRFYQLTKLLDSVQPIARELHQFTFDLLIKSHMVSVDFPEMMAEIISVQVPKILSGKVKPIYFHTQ
In words: biochemical.
Description: Displacement of [3H]testosterone from androgen receptor (unknown origin) expressed in 293 cells after 16 hrs by scintillation counting

Data set [13] can be described thus: Lipophilicity, log D of the compound at pH 7.4 by HPLC analysis. Format: physicochemical. To be noted: buffer.
The nature of data set [14]: Oral bioavailability in Sprague-Dawley rat at 3 mg/kg. To be noted: in vivo. Format: ADME, organism-based.

Sequence of Glucocorticoid receptor (P04150 whole entry, looked up): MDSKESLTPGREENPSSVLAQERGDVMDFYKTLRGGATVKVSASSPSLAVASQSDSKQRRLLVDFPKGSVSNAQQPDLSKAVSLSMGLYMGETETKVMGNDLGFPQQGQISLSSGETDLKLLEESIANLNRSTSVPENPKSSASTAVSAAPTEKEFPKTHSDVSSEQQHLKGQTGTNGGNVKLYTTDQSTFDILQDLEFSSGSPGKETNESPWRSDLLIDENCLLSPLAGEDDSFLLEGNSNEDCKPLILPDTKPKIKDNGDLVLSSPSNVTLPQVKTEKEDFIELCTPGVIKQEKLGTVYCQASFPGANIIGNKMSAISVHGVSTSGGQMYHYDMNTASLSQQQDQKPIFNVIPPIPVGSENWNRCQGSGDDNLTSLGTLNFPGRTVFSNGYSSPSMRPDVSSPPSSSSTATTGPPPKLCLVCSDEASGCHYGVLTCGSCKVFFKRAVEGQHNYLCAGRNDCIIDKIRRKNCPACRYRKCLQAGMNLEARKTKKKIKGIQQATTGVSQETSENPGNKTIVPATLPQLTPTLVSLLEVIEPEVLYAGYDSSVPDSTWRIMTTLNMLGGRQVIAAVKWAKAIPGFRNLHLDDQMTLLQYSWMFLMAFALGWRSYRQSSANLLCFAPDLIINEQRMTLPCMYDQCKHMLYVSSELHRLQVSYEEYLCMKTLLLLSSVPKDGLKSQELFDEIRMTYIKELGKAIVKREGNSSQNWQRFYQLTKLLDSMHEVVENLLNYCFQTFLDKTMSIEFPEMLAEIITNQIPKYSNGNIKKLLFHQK

As to `CC(=O)S[C@@H]1CC2=CC(=O)CC[C@]2(C)[C@H]2CC[C@@]3(C)[C@@H](CC[C@@]34CCC(=O)O4)[C@H]12` [SPIRONOLACTONE], the Activity result in data set [1] is on record as “Non-toxic”; in data set [2] it was “Toxic”.
Turning to `Cc1nn(CC(F)(F)CO)c(-c2ccc(F)cc2)c1-c1ccc2c(c1)NC(=O)CO2`, the concentration for half-maximal inhibition (IC50) (usually the concentration that gives 50% inhibition) in data set [3] is over 10000 nM; in data set [5], 71 nM; in data set [9], 51 nM; in [11] it was 2400 nM; in data set [12] it was over 10000 nM. In addition, the Activity result in [1] and in data set [2] was “Non-toxic” in each case. Moreover, the microsomal CLint at 1 µM in data set [4] is over 42 µL/min/mg. In addition, the MRT (as a rule, the average time that molecules of a dose stay in the body) in data set [6] was 3.77 h. For the same compound, the AUC(0-t) – broadly, the area under the concentration-time curve up to a stated or last time point – at 24 h in [7] stood at 662 ng·h/mL. In [8], the clearance (commonly the volume of plasma or blood freed of the substance per unit of time) was 16.5 mL/min/kg. For the same compound, in [10], the Vd was found to be 1.36 L/kg. Moreover, the pH-dependent lipophilicity (logD) – broadly, lipophilicity at a set pH, counting ionised and neutral species – in data set [13] amounted to 2.05. In addition, in data set [14], the bioavailability (in general, dose-corrected exposure relative to a reference, in per cent) amounted to 21.4%.
Take `Cc1nn(Cc2ccncc2)c(-c2ccc(F)cc2)c1-c1ccc2c(c1)NC(=O)CO2`: the concentration for half-maximal inhibition (IC50) was over 10000 nM in [3]; 430 nM in [5]; 520 nM in data set [9]; over 10000 nM in [11]; over 10000 nM in data set [12]. For the same compound, in data set [13], the logD worked out at 2.2.
Regarding `Cc1nn(Cc2cccnc2)c(-c2ccc(F)cc2)c1-c1ccc2c(c1)NC(=O)CO2`, the IC50 in data set [3] was over 10000 nM; in [5], 36 nM; in data set [9] it was 36 nM; in data set [11], 1700 nM; in data set [12] it was over 10000 nM. Moreover, the microsomal CLint at 1 µM in data set [4] was over 200 µL/min/mg. The same compound came in with a log distribution coefficient (logD) in data set [13] of 2.22.
Turning to `Cc1nn(CCCO)c(-c2ccc(F)cc2)c1-c1ccc2c(c1)NC(=O)CO2`, the half-inhibitory concentration (IC50) was over 10000 nM in [3]; 680 nM in data set [5]; 440 nM in data set [9]; over 10000 nM in data set [11]; over 10000 nM in [12]. Besides, the logD in data set [13] stood at 1.99.
